Results on two compounds are retold here after publication PMC7496286, “The Selectivity of Fosfosal for STAT5b over STAT5a is Mediated by Arg566 in the Linker Domain” (Chembiochem, 2020).

What is called Kd is the free concentration of one partner at which half of the binding sites on the other are occupied at equilibrium, for simple one-to-one binding. A higher Kd goes with lower affinity. One may read the IC50 as the concentration needed to halve the response being measured. A word on the Ki: it is a measure of affinity in units of concentration, obtained from inhibition or displacement.

SMILES strings stand for the structures. Changes are numbered by the printed parent chain.

The target of one experiment is T1, STAT5b Arg566Glu (Homo sapiens, UniProt P51692, R566E).
T1 construct: His; made in house
T1 sequence (P51692 1-787 R566E): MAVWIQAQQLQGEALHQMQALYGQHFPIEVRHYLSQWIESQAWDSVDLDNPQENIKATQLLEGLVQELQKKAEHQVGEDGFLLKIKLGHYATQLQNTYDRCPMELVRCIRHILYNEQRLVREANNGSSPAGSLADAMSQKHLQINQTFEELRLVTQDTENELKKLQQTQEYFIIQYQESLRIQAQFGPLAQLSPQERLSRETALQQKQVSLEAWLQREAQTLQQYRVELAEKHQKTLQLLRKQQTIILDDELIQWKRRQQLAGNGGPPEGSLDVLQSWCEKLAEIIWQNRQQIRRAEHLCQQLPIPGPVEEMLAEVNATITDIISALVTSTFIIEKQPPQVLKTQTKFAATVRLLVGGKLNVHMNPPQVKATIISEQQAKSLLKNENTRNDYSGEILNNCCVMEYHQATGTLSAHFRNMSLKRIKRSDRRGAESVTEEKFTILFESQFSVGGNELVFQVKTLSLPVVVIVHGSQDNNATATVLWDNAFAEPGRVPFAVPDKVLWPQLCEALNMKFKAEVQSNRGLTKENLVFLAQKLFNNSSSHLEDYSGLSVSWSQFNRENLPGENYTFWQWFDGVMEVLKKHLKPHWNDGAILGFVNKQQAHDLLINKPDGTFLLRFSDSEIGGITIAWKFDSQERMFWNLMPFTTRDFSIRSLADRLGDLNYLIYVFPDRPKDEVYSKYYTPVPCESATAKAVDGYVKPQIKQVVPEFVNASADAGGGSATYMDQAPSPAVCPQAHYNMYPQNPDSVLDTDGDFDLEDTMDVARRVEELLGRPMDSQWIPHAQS
As to the kind of experiment: FP-based competitive binding assay, STAT5b Arg566Glu. How it is done: (§1) Fluorescence polarization assays
(§2) The ability of test compounds to displace 5-carboxyfluorescein-GY(PO3H2)LVLDKW (final concentration: 10 nM) from the SH2 domain of STAT5a/b proteins was analyzed. Proteins […]
(§3) was applied in dilution series comprising the following concentrations: 0.024 – 200 µM […]
(§4) and 0.146 – 600 µM (STAT5b Arg566Glu), respectively. The assays were performed in buffer containing 10 mM Tris, 50 mM NaCl, 1 mM DTT, 1 mM EDTA and 0.1% (v/v) NP-40. Fosfosal was dissolved in DMSO. STAT5a/b proteins and fosfosal were incubated at room temperature for 1 h before adding peptide. Samples were transferred to 384-well microtiter plates and fluorescence polarization was read after a further 1 h incubation time. All measurements were performed in triplicate (n=3), except for STAT5b (n=6) and STAT5a Trp566Arg (n=4). Percent binding was calculated based on a logarithmic curve fit using OriginPro 8G software. IC50 values were converted to Ki values using the published equation.[4] […]

In experiment [1] the target is T2, STAT5a Trp566Arg/Lys644Met (Homo sapiens, UniProt P42229, K644M/W566R).
T2 construct: His; made in house
T2 sequence (P42229 1-794 W566R/K644M): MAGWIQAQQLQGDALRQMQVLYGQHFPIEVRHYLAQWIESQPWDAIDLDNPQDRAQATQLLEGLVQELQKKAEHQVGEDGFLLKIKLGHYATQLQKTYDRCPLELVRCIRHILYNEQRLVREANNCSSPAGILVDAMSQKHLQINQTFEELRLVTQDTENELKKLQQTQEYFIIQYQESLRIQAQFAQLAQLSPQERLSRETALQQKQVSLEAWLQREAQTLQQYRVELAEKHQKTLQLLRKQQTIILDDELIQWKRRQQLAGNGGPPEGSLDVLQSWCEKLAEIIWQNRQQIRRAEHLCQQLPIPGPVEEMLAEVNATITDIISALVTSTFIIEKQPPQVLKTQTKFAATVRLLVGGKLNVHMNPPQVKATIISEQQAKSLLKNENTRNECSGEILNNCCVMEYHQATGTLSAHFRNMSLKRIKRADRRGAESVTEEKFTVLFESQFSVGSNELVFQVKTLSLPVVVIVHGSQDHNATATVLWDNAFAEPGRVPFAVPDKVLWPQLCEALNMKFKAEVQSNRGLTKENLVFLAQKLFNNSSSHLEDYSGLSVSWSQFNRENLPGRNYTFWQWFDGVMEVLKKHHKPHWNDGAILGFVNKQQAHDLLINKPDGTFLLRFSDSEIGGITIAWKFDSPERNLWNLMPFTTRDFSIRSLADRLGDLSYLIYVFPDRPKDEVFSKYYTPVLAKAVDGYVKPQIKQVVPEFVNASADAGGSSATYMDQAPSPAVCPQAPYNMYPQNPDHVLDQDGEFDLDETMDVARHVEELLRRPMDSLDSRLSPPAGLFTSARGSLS
Kind of experiment: FP-based competitive binding assay, STAT5a Trp566Arg/Lys644Met. As for the experimental part: as §1, §2, §3, §4
(§5) [4] Z. Nikolovska-Coleska, R. Wang, X. Fang, H. Pan, Y. Tomita, P. Li, P. P. Roller, K.
(§6) Krajewski, N. G. Saito, J. A. Stuckey, S. Wang, Anal. Biochem. 2004, 332, 261-273.

Another experiment addresses T3, STAT5b Met644Lys (Homo sapiens, UniProt P51692, M644K).
T3 construct: His; made in house
T3 sequence (P51692 1-787 M644K): T1 sequence (P51692 1-787 R566E) with E566R, M644K
As to the kind of experiment: FP-based competitive binding assay, STAT5b Met644Lys. How it is done:
as §1, §2, §3, §4, §5, §6

Regarding `CC(C)C[C@H](NC(=O)[C@H](Cc1ccc(OP(=O)(O)O)cc1)NC(=O)CNC(=O)c1ccc2c(c1)C(=O)OC21c2ccc(O)cc2Oc2cc(O)ccc21)C(=O)N[C@H](C(=O)N[C@@H](CC(C)C)C(=O)N[C@@H](CC(=O)O)C(=O)N[C@@H](CCCCN)C(=O)N[C@@H](Cc1c[nH]c2ccccc12)C(=O)O)C(C)C` [5-carboxyfluorescein-GY(PO3H2)LVLDKW], the dissociation constant (Kd) at STAT5b Arg566Glu turned out to be 2 µM; in experiment [1], 0.08 µM; at STAT5b Met644Lys, 0.026 µM.

`O=C(O)c1ccccc1OP(=O)(O)O` [fosfosal, O‐phosphorylated salicylic acid]: on STAT5b Arg566Glu (STAT5b Arg566Glu, up to 600 μM), the “% inhibition at 600 μM” value is on record as “no inhibition”. Further, the IC50 was 24.5 ± 1.4 µM in experiment [1] (STAT5a Trp566Arg/Lys644Met) and 36.6 ± 2 µM at STAT5b Met644Lys (STAT5b Met644Lys). Further, the Ki in experiment [1] (STAT5a Trp566Arg/Lys644Met, Ki calculated from IC50) was 12.3 ± 0.6 µM; at STAT5b Met644Lys (STAT5b Met644Lys, Ki calculated from IC50) it was 17.2 ± 0.9 µM.
